Data from ChEMBL document CHEMBL1201862, “PubChem BioAssay data set” (2004).
Calls of active or inactive are those of the source.

Columns and labels:
Aspartyl aminopeptidase = Aspartyl aminopeptidase (Plasmodium falciparum 3D7, UniProt Q8I2J3)
Procathepsin L = Procathepsin L (Homo sapiens, UniProt P07711)
[1] = inhibitors of intracellular T. cruzi replication, confirmation, NIH3T3 host cells, beta-gal luminescence (AID 2044); assay type: functional, cell-based;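 further: intracellular parasites grown in NIH/3T3 mouse fibroblasts as host cells; luminescent beta-galactosidase reporter signal from transgenic T. cruzi replicating inside host cells; inhibitors lower the luminescence signal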
[2] = cytotoxicity toward NIH3T3 fibroblasts, dose response, counter-screen, cell-based, ATP luminescence, mouse fibroblasts (AID 2010); assay type: functional;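 further: cells exposed to compound for about 90 hours before reading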
[3] = target: Scavenger receptor class B member 1 (Mus musculus, UniProt Q61009); test: inhibitors of SR-BI mediated HDL lipid uptake, dose response, ldlA[mSR-BI] cells, fluorescence, cherry pick (AID 493194); assay type: functional, cell-based;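 further: cellular uptake of fluorescent DiI-labeled HDL measured as cell fluorescence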
[4] = target: T1, E3 ubiquitin-protein ligase XIAP (Homo sapiens, UniProt P98170); test: Counter Screen using XIAP-Bir3 for Chemical Antagonists of Bir1/2 domains of IAP-family anti-apoptotic proteins. [Related pubchem assays (depositor defined):AID1018, AID1449, AID1514, AID1638, AID1749, AID1750, AID488957, AID488963]
[5] = target: T1, E3 ubiquitin-protein ligase XIAP; test: XIAP antagonists, biochemical, IAP family, fluorescence polarization (AID 1018); assay type: functional
[6] = HepG2 cell cytotoxicity, dose response, cytotoxicity control, ATP luminescence, cherry-pick, activator set 2 (AID 1053143); assay type: functional, cell-based
Vero [7] = test: host cell cytotoxicity of antiviral hits, dose response, cytotoxicity control for West Nile virus antiviral project, secondary assay (AID 1650); assay type: functional; settings: Chlorocebus sabaeus
Nonstructural protein 1 = Nonstructural protein 1 (Influenza A virus, UniProt Q194T2); assay type: functional, Influenza A virus (A/California/07/2009(H1N1))
Vero [8] = test: cells; assay type: functional; settings: Chlorocebus sabaeus
[9] = target: T2, Polyadenylate-binding protein 1 (Homo sapiens, UniProt P11940); test: PABP1 MLLE–PAM2 interaction inhibitors, dose response, miRNA deadenylation inhibitor project, biochemical, fluorescence polarization, Cy5-PAM2 peptide, secondary (AID 602260); assay type: functional; settings: read-out: IC50_Mean
[10] = target: T2, Polyadenylate-binding protein 1; test: PABP1 MLLE–PAM2 binding inhibitor potency, dose response, biochemical, fluorescence polarization, FITC-PAM2 peptide (AID 602259); assay type: functional; settings: read-out: IC50_Mean
Estrogen receptor = Estrogen receptor (Homo sapiens, UniProt P03372);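 further: potency for inhibiting coactivator peptide recruitment to the receptor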
Estrogen receptor beta [11] = target: T3, Estrogen receptor beta (Homo sapiens, UniProt Q92731);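 further: recombinant ER-beta bound to coactivator SRC1 peptide in presence of estradiol agonist; inhibitors block coactivator peptide binding and lower the FRET signal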
Estrogen receptor beta [12] = target: T3, Estrogen receptor beta; test: ERβ–SRC-3 coactivator interaction inhibitors, confirmation, orthogonal assay, biochemical, ELISA, streptavidin-HRP readout (AID 1060)
BJ [13] = test: cytotoxicity toward BJ-TERT fibroblasts, dose response, cell-based, RAS-independent, luminescence (AID 1933); assay type: functional; settings: Homo sapiens
BJ [14] = test: cells; assay type: functional, cell-based; settings: Homo sapiens
BJ [15] = test: cytotoxicity toward BJ-TERT-LT-ST fibroblasts, dose response, cell-based, RAS-independent, luminescence (AID 1935); assay type: functional; settings: Homo sapiens;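 further: BJ fibroblasts immortalized with TERT plus LT and ST oncogenes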
[16] = cytotoxicity toward DRD oncogenic fibroblasts, dose response, cell-based, non-viral oncogenic, luminescence (AID 1934); assay type: functional; settings: Homo sapiens
[17] = target: T4, Short transient receptor potential channel 4 (Mus musculus, UniProt Q9QUQ5); test: mouse TRPC4 channel activators, dose response, cell-based, HEK293 TRPC4/mu-opioid, Fluo-4 calcium (AID 434937); assay type: functional
T4 sequence (Q9QUQ5 whole entry): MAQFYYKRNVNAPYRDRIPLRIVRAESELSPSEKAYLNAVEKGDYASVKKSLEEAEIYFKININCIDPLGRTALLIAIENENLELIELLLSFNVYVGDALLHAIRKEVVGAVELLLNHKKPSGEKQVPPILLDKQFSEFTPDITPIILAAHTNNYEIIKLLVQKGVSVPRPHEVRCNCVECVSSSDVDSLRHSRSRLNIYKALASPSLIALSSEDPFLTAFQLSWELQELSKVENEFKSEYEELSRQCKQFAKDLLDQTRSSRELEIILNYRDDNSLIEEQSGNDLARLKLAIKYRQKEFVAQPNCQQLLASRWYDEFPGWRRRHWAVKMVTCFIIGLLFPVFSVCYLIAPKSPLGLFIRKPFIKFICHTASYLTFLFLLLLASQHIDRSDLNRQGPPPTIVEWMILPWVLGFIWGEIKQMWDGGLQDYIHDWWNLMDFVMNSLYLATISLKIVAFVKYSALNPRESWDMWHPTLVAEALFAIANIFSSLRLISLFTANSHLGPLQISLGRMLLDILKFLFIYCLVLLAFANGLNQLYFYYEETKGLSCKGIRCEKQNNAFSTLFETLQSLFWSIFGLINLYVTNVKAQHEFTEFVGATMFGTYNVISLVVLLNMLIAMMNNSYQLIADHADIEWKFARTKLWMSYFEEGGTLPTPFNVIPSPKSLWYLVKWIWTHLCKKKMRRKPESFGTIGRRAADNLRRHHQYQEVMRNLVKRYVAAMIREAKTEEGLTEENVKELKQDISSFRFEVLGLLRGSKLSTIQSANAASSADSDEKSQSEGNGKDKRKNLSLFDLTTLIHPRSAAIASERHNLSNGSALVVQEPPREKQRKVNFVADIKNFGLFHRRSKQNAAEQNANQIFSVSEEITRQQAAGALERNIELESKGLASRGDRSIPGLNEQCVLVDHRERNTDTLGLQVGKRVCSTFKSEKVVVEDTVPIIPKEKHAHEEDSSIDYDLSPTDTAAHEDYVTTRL

[18] = target: Lysosomal acid glucosylceramidase (Homo sapiens, UniProt P04062); test: Dose response cell-based high throughput screening assay to identify enhancers of beta-glucosidase activity. [Related pubchem assays: 784 ]; assay type: functional
[19] = target: T5, Carboxy-terminal domain RNA polymerase II polypeptide A small phosphatase 1 (Homo sapiens, UniProt Q9GZU7); test: inhibitors of CTDSP1, concentration-response testing, biochemical assay, absorbance-based, actives from ultra-high-throughput screening (AID 540297); assay type: functional
T5 sequence (Q9GZU7 whole entry): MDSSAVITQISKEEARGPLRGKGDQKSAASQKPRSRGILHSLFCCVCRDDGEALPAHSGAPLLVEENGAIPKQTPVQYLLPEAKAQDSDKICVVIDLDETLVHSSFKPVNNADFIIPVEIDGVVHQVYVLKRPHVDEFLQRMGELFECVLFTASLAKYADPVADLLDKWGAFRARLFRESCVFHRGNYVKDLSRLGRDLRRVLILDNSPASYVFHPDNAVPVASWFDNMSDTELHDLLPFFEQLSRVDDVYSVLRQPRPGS

[20] = Luminescence-based dose response cell-based high throughput screening assay for cytotoxic compounds using the IEC-6 intestinal epithelial cell line. [Related pubchem assays: 1858 (Summary AID.), 1825 (Counterscreen.), 1907 (Confirmation screen.)]; assay type: functional
[21] = cytotoxicity in HEK-293T cells, dose response, cytotoxicity control for BCR NF-kB inhibitor project, luminescence, B-cell screen hits (AID 489021); assay type: functional, cell-based;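 further: HEK-293T cells carrying an NF-kB luciferase reporter; cells exposed to compound for about 14 hours before viability readout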
Hexokinase HKDC1 = target: T6, Hexokinase HKDC1 (Homo sapiens, UniProt Q2TB90); test: HKDC1 hexokinase inhibitors, dose response, biochemical, W721R variant (AID 504729); assay type: functional
T6 sequence (Q2TB90 whole entry): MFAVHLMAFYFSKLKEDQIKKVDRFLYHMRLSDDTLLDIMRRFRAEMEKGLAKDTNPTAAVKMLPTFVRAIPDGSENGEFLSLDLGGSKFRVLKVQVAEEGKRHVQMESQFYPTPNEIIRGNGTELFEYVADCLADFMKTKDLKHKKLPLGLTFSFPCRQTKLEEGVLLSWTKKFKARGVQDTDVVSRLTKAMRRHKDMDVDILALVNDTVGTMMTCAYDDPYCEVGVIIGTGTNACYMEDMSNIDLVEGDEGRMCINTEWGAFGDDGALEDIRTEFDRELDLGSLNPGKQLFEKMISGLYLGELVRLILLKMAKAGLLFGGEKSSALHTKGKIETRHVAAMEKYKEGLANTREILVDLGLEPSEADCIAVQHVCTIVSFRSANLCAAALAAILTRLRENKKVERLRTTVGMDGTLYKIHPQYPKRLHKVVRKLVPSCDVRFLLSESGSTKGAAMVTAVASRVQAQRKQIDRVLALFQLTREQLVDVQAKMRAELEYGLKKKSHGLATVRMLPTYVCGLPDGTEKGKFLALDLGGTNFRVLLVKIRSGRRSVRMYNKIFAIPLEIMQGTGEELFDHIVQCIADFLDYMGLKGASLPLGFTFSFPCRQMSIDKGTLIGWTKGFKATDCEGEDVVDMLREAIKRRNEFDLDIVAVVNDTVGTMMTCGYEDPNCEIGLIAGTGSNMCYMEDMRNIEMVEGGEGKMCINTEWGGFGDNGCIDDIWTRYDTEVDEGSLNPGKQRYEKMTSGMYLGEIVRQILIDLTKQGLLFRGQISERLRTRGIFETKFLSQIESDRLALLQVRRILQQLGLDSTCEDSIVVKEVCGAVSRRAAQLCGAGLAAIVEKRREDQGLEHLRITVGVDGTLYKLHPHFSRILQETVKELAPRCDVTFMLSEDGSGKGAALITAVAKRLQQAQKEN

Genome polyprotein = Genome polyprotein (dengue virus type 2, UniProt P29990); test: Dengue-2 NS5 methyltransferase inhibitors, primary screen, biochemical, confirmation dose response (AID 588689); assay type: functional
[22] = M. tuberculosis H37Rv growth inhibitors, H37Rv strain (AID 1626); assay type: functional
Bcl-2-like protein 10 = target: T7, Bcl-2-like protein 10 (Homo sapiens, UniProt Q9HD36); test: displacers of TR3 peptide from Bcl-B, primary screen, selectivity assay for Bfl-1 inhibitor project, biochemical, fluorescence polarization, FITC-TR3 peptide (AID 748);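 further: fluorescence polarization from a fluorescein-labelled TR3 peptide binding purified Bcl-B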
T7 sequence (Q9HD36 whole entry): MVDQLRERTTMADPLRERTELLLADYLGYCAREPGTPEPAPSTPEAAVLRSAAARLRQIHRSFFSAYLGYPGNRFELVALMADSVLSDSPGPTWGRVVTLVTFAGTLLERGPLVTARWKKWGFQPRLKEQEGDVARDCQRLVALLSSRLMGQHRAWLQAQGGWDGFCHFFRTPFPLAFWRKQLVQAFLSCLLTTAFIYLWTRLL

T3 sequence (Q92731 whole entry): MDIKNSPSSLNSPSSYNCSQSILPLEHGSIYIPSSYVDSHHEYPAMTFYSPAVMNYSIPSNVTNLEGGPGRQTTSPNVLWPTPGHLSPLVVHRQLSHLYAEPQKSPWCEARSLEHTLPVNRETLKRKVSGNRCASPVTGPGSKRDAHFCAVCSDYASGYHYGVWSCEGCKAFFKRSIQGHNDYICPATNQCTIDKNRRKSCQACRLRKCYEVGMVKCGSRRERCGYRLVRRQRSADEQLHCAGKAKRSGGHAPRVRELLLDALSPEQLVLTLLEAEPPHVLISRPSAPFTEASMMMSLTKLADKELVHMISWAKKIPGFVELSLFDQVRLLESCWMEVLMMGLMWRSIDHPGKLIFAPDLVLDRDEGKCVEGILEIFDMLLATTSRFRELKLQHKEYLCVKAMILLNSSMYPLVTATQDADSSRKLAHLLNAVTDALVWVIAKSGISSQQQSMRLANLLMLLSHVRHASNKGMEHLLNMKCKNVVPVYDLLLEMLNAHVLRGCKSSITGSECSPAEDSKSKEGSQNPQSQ
T1 sequence (P98170 whole entry): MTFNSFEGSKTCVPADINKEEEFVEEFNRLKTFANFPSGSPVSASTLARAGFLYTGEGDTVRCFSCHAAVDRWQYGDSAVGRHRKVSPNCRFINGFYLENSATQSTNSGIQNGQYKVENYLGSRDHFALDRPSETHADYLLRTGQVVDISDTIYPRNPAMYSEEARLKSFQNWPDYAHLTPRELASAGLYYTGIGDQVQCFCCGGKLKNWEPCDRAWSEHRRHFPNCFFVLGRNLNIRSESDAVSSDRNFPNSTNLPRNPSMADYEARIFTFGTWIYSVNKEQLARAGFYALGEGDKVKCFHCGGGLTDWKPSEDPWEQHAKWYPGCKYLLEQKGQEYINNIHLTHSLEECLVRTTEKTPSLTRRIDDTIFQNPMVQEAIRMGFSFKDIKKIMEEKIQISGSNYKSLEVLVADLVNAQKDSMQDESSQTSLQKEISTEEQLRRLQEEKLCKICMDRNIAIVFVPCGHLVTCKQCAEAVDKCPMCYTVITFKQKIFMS
Sequence of Procathepsin L (P07711 whole entry): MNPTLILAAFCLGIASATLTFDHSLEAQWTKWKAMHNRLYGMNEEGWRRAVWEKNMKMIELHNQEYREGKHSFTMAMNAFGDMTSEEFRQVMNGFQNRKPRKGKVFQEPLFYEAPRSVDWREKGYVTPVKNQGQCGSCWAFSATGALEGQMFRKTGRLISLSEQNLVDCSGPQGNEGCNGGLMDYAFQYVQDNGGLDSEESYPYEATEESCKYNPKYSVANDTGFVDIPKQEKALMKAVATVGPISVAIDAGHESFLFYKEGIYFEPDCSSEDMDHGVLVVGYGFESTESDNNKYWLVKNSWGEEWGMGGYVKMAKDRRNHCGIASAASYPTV
Sequence of Estrogen receptor (P03372 whole entry): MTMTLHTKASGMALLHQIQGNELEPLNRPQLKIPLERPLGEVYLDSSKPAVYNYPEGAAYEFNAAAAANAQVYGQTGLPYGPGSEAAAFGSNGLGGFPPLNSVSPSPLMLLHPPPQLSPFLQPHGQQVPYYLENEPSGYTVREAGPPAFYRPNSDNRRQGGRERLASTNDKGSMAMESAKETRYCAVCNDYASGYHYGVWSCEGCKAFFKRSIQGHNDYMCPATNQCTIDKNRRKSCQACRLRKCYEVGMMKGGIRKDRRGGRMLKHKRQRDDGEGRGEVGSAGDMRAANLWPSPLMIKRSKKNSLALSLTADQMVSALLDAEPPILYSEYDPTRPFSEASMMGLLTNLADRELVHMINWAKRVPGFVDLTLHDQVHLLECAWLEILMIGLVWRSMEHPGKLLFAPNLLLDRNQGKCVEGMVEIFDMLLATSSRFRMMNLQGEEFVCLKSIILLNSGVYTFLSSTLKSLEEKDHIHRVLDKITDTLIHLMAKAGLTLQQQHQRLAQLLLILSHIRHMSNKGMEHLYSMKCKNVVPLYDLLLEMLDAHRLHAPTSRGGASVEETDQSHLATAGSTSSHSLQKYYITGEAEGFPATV
Sequence of Lysosomal acid glucosylceramidase (P04062 whole entry, the tested form may be a part): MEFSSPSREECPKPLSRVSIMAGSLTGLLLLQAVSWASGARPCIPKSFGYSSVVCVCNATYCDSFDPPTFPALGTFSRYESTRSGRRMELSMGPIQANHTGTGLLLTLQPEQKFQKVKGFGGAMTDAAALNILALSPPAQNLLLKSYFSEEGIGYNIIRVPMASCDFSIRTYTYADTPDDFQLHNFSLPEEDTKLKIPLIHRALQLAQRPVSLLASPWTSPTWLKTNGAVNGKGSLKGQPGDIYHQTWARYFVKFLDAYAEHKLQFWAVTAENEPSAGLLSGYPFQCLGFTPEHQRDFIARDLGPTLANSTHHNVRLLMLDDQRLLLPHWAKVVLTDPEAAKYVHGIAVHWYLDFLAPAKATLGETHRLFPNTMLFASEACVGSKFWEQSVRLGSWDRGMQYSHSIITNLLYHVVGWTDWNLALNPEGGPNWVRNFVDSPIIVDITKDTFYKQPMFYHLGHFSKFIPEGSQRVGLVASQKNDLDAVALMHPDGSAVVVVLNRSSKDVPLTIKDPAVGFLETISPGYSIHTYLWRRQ
Sequence of Aspartyl aminopeptidase (Q8I2J3 whole entry): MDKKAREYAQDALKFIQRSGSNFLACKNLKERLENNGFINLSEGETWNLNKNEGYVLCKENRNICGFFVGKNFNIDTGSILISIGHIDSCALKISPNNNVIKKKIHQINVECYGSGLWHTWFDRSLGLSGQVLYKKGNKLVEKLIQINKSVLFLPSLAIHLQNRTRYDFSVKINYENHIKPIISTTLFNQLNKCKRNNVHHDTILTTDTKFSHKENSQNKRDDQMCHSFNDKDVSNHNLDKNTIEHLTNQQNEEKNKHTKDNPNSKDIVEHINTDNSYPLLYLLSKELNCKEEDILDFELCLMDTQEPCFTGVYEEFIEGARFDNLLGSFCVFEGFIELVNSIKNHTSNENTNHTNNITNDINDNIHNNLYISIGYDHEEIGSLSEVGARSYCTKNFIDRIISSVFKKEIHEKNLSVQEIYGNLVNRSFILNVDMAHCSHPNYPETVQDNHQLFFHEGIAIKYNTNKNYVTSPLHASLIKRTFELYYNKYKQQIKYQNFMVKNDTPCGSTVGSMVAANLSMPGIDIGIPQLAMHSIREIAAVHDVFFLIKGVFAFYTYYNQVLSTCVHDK
T2 sequence (P11940 whole entry): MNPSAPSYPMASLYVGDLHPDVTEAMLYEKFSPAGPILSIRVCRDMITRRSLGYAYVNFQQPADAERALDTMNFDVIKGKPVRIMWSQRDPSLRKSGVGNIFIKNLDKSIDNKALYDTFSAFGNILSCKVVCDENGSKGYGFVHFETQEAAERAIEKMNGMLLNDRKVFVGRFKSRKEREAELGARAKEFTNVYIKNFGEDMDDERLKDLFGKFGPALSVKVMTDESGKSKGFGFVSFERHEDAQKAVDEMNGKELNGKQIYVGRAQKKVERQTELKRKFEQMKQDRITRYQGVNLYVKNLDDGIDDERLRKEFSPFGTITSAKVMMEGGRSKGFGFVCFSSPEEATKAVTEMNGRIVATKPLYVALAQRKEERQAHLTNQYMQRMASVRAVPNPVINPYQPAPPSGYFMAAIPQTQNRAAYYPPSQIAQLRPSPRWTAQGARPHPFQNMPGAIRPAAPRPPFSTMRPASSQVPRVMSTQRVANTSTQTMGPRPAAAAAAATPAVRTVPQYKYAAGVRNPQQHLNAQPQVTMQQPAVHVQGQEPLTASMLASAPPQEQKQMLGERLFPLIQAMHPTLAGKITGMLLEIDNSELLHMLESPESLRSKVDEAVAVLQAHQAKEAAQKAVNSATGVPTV
Sequence of Scavenger receptor class B member 1 (Q61009 whole entry): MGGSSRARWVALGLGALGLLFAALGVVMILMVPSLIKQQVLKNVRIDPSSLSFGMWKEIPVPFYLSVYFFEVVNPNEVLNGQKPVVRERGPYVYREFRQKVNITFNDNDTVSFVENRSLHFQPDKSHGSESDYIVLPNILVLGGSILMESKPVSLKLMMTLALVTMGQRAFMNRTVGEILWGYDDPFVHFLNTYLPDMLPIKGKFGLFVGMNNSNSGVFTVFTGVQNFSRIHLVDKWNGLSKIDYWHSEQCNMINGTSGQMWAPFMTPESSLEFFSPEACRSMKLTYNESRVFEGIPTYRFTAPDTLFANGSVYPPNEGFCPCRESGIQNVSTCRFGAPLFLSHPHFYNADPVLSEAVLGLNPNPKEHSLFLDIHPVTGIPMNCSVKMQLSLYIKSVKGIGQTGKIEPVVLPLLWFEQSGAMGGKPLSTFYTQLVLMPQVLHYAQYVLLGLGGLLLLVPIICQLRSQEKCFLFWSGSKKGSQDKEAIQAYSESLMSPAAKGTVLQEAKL
Sequence of Nonstructural protein 1 (Q194T2 whole entry): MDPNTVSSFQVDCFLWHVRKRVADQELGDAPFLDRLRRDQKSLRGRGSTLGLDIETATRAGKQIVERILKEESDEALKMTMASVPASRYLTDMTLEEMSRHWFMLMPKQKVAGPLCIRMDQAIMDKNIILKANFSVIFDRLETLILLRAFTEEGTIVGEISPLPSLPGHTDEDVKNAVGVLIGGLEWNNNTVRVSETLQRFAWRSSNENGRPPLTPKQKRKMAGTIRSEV

OC(Cn1cnnc1)c1ccccc1 (stereo not given)
IC50 (Aspartyl aminopeptidase): 0.603 µM (active) | IC50 (Procathepsin L): > 59.6 µM (not active)

O=C(c1cc([N+](=O)[O-])cc([N+](=O)[O-])c1)N1CCCc2ccccc21
EC50 [1]: < 0.1 µM (active) | EC50 [2]: > 60 µM (not active) | EC50 (cells): 0.203 µM (active)

N#Cc1sc2nc(C3CC3)cc(-c3ccc(Cl)cc3)c2c1N
AC50 [3]: 2.36 µM (active)

O=C(Nc1ccc(F)c(Cl)c1)Nn1cnnc1
IC50 (Aspartyl aminopeptidase): 1.46 µM (active) | IC50 (Procathepsin L): > 59.6 µM (not active)

COc1cc(OC)cc(-c2nc3cc(C)ccc3o2)c1
IC50 [4]: > 100 µM (inactive) | IC50 [5]: > 100 µM (not active) | AC50 [6]: 26 µM (active)

CCC(C)C(=O)N1c2ccccc2C(=C2SC(C(=O)OC)=C(C(=O)OC)S2)C(=S)C1(C)C (stereo not given)
CC50 (Vero [7]): > 100 µM (active) | IC50 (Nonstructural protein 1): 17.7 µM (active) | CC50 (Vero [8]): 21.6 µM (active) | IC50 [9]: > 66 µM (inactive) | IC50 [10]: > 66 µM (inactive)

COc1ccc(-c2nnc(SC/C(O)=C(/C#N)C(C)=N)o2)cc1
IC50 (Estrogen receptor): 30 µM (not active) | IC50 (Estrogen receptor beta [11]): 11.2 µM (active) | IC50 (Estrogen receptor beta [12]): 0.35 µM (not active)

Nc1c(C(=O)c2ccccc2)sc2nsc(SCCN3CCCC3)c12
EC50 (BJ [13]): 12.8 µM (active) | EC50 (BJ [14]): 7.28 µM (active) | EC50 [1]: 0.636 µM (active) | EC50 [2]: 14.9 µM (active) | EC50 (BJ [15]): 12.5 µM (active) | EC50 [16]: 15.1 µM (active) | EC50 [17]: 5.96 µM (active)

CCc1ccc(NC(=O)C2CCCN(S(=O)(=O)c3ccc4nc(O)ccc4c3)C2)cc1 (stereo not given)
AC50 [3]: 27.5 µM (active)

Cc1c(C)c2cc3c4c(oc3c(C)c2oc1=O)CCCC4
EC50 [18]: > 50 µM (not active)

O=C(O)c1cccc(N2C(=O)C3CC=C(Cl)CC3C2=O)c1 (stereo not given)
IC50 [4]: > 100 µM (inactive) | IC50 [5]: > 100 µM (not active) | IC50 [19]: 10.3 µM (active)

Cc1[nH]c2ccccc2c1/C=N/Nc1nc(Nc2ccc(F)cc2)nc(N2CCOCC2)n1
IC50 [20]: 1.09 µM (active) | IC50 [21]: 51.2 µM (inactive)

COC1=CC(=O)C(C2CC(=O)c3c(O)cc(O)cc3O2)=CC1=O (stereo not given)
IC50 (Hexokinase HKDC1): 11.5 µM (active) | IC50 (Genome polyprotein): 9.23 µM (active)

O=S(=O)(Nc1cc(Sc2cccc3cccnc23)c(O)c2ccccc12)c1ccccc1
EC50 (BJ [13]): 12.1 µM (inconclusive) | CC50 (Vero [7]): 6.77 µM (active) | EC50 (BJ [14]): 22.1 µM (inconclusive) | EC50 (BJ [15]): > 75 µM (inconclusive) | EC50 [16]: 16.1 µM (active)

CCOC(=O)c1ccc(NC(=O)CSc2nnc(COc3ccccc3OC)n2C)cc1
IC50 [22]: > 100 µM (active)

Cc1cc(Cl)ccc1OCC(=O)OC(C)C(=O)N(C)C (stereo not given)
IC50 (Bcl-2-like protein 10): > 100 µM (inactive) | IC50 (Estrogen receptor): 37 µM (not active) | IC50 (Estrogen receptor beta [11]): 16.7 µM (active) | IC50 (Estrogen receptor beta [12]): < 0.023 µM (not active) | IC50 [19]: 15.3 µM (active)

Cc1ccc(C)n1-c1ccc(C(=O)NCC2CCCO2)cc1 (stereo not given)
EC50 [18]: > 50 µM (not active)

CN(CC1CCCN(CCc2cccc(C(F)(F)F)c2)C1)C(=O)c1ccco1 (stereo not given)
EC50 [1]: < 0.1 µM (active) | EC50 [2]: > 60 µM (not active) | EC50 (cells): 0.587 µM (active)
